Laboratory results as given in ChEMBL document CHEMBL1201862, “PubChem BioAssay data set” (2004).
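Method: 48-hour compound exposure of cells in 96-well plates, five concentrations, linear interpolation of endpoints. The concentration for 50% growth inhibition is given as GI50.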 Activity calls are given as the source filed them. Cut-off read from the data, not from the text of the source: active = GI50 up to about 1.1 µM and inactive = higher.

Tests used:
Experiment in all cases: NCI tumour cell line growth inhibition, 48 h
[1] = tested on: CAKI-1
[2] = tested on: SF-539
[3] = tested on: LOX IMVI
[4] = tested on: HOP-92
[5] = tested on: SNB-78
[6] = tested on: EKVX
[7] = tested on: UACC-62
[8] = tested on: HT-29
[9] = tested on: MOLT-4
[10] = tested on: HCT-116
[11] = tested on: SK-OV-3
[12] = tested on: HCT-15
[13] = tested on: SNB-19
[14] = tested on: CCRF-CEM
[15] = tested on: M19-MEL
[16] = tested on: IGROV-1
[17] = tested on: NCI-H226
[18] = tested on: SN12C
[19] = tested on: OVCAR-3
[20] = tested on: U-251
[21] = tested on: NCI-H23
[22] = tested on: SK-MEL-5
[23] = tested on: K562
[24] = tested on: ACHN
[25] = tested on: KM12
[26] = tested on: SK-MEL-28
[27] = tested on: SW-620
[28] = tested on: LXFL 529
[29] = tested on: 786-0
[30] = tested on: SF-268
[31] = tested on: XF498
[32] = tested on: A498
[33] = tested on: SK-MEL-2
[34] = tested on: RXF 393
[35] = tested on: HL-60
[36] = tested on: NCI-H522
[37] = tested on: HOP-62
[38] = tested on: TK-10
[39] = tested on: M14
[40] = tested on: SNB-75
[41] = tested on: DLD-1
[42] = tested on: SF-295
[43] = tested on: RPMI-8226
[44] = tested on: COLO 205
[45] = tested on: UACC-257
[46] = tested on: SR
[47] = tested on: OVCAR-5
[48] = tested on: HOP-18
[49] = tested on: KM-20L2
[50] = tested on: OVCAR-8
[51] = tested on: HCC 2998
[52] = tested on: Malme-3M
[53] = tested on: UO-31
[54] = tested on: NCI-H460
[55] = tested on: DMS-114
[56] = tested on: DMS-273
[57] = tested on: A549
[58] = tested on: OVCAR-4

COC(=O)N1CCc2c(nc(N(C)CCO)[nH]c2=O)C1
GI50 [1]: > 100 µM (inactive)
GI50 [2]: > 100 µM (inactive)
GI50 [3]: > 100 µM (inactive)
GI50 [4]: > 100 µM (inactive)
GI50 [5]: > 100 µM (inactive)
GI50 [6]: > 100 µM (inactive)
GI50 [7]: > 100 µM (inactive)
GI50 [8]: > 100 µM (inactive)
GI50 [9]: > 100 µM (inactive)
GI50 [10]: > 100 µM (inactive)
GI50 [11]: > 100 µM (inactive)
GI50 [12]: > 100 µM
GI50 [13]: > 100 µM (inactive)
GI50 [14]: > 100 µM (inactive)
GI50 [15]: > 100 µM (inactive)
GI50 [16]: > 100 µM (inactive)
GI50 [17]: > 100 µM (inactive)
GI50 [18]: > 100 µM (inactive)
GI50 [19]: > 100 µM (inactive)
GI50 [20]: > 100 µM (inactive)
GI50 [21]: > 100 µM (inactive)
GI50 [22]: > 100 µM (inactive)
GI50 [23]: > 100 µM (inactive)
GI50 [24]: > 100 µM (inactive)
GI50 [25]: > 100 µM (inactive)
GI50 [26]: > 100 µM (inactive)
GI50 [27]: > 100 µM (inactive)
GI50 [28]: > 100 µM (inactive)
GI50 [29]: > 100 µM (inactive)
GI50 [30]: > 100 µM (inactive)
GI50 [31]: > 100 µM (inactive)
GI50 [32]: > 100 µM (inactive)
GI50 [33]: > 100 µM (inactive)
GI50 [34]: > 100 µM (inactive)
GI50 [35]: > 100 µM (inactive)
GI50 [36]: > 100 µM (inactive)
GI50 [37]: > 100 µM (inactive)
GI50 [38]: > 100 µM (inactive)
GI50 [39]: > 100 µM (inactive)
GI50 [40]: > 100 µM (inactive)
GI50 [41]: > 100 µM (inactive)
GI50 [42]: > 100 µM (inactive)
GI50 [43]: > 100 µM (inactive)
GI50 [44]: > 100 µM (inactive)
GI50 [45]: > 100 µM (inactive)
GI50 [46]: > 100 µM (inactive)
GI50 [47]: > 100 µM (inactive)
GI50 [48]: > 100 µM (inactive)
GI50 [49]: > 100 µM (inactive)
GI50 [50]: > 100 µM (inactive)
GI50 [51]: > 100 µM (inactive)
GI50 [52]: > 100 µM (inactive)
GI50 [53]: > 100 µM (inactive)
GI50 [54]: > 100 µM (inactive)
GI50 [55]: > 100 µM (inactive)
GI50 [56]: > 100 µM (inactive)
GI50 [57]: > 100 µM (inactive)

CCOc1ccccc1NC(=O)/C=C1\NC(=O)CS1
GI50 [1]: > 100 µM (inactive)
GI50 [2]: > 100 µM (inactive)
GI50 [3]: > 100 µM (inactive)
GI50 [4]: > 100 µM (inactive)
GI50 [5]: > 100 µM (inactive)
GI50 [6]: > 100 µM (inactive)
GI50 [58]: > 100 µM (inactive)
GI50 [7]: > 100 µM (inactive)
GI50 [8]: > 100 µM (inactive)
GI50 [9]: > 100 µM (inactive)
GI50 [10]: > 100 µM (inactive)
GI50 [11]: > 100 µM (inactive)
GI50 [13]: > 100 µM (inactive)
GI50 [14]: 69 µM (inactive)
GI50 [15]: > 100 µM (inactive)
GI50 [16]: > 100 µM (inactive)
GI50 [17]: > 100 µM (inactive)
GI50 [18]: > 100 µM (inactive)
GI50 [19]: > 100 µM (inactive)
GI50 [20]: > 100 µM (inactive)
GI50 [21]: > 100 µM (inactive)
GI50 [22]: > 100 µM (inactive)
GI50 [23]: > 100 µM (inactive)
GI50 [25]: > 100 µM (inactive)
GI50 [26]: > 100 µM (inactive)
GI50 [27]: > 100 µM (inactive)
GI50 [28]: > 100 µM (inactive)
GI50 [29]: > 100 µM (inactive)
GI50 [30]: > 100 µM (inactive)
GI50 [31]: > 100 µM (inactive)
GI50 [32]: > 100 µM (inactive)
GI50 [33]: > 100 µM (inactive)
GI50 [34]: > 100 µM (inactive)
GI50 [35]: > 100 µM (inactive)
GI50 [36]: 86.1 µM (inactive)
GI50 [37]: > 100 µM (inactive)
GI50 [38]: > 100 µM (inactive)
GI50 [39]: > 100 µM (inactive)
GI50 [40]: 26.9 µM (inactive)
GI50 [41]: > 100 µM (inactive)
GI50 [42]: > 100 µM (inactive)
GI50 [43]: 62.5 µM (inactive)
GI50 [44]: > 100 µM (inactive)
GI50 [47]: > 100 µM (inactive)
GI50 [48]: 98.2 µM (inactive)
GI50 [49]: > 100 µM (inactive)
GI50 [50]: > 100 µM (inactive)
GI50 [51]: > 100 µM (inactive)
GI50 [52]: 50.5 µM (inactive)
GI50 [53]: > 100 µM (inactive)
GI50 [54]: > 100 µM (inactive)
GI50 [55]: > 100 µM (inactive)
GI50 [56]: > 100 µM (inactive)
GI50 [57]: > 100 µM (inactive)
